Reference: US8105567B2, “Multidentate AZA ligands able to complex metal ions and the use thereof in diagnostics and therapy” (Bracco Imaging SpA, priority 2001, dated 2012)

How the values were obtained:
PC-3 tumors = experiment: Biodistribution and tumor targeting of 177Lu complexes in the human PC-3 nude mouse model; format: in vivo; details: 177Lu complex
Description: For biodistribution studies, the radiolabeled compounds were prepared as described above except that a 1:1 molar ratio of ligand to Lutetium was used to guarantee complete chelation of all starting ligand. […] The remaining solution was further diluted to the required radioconcentration using Bacteriostatic saline/ASCOR L500® Ascorbic Acid Injection USP mixed in a 9 to 1 [v/v]) ratio.
10-50 μCi of the HPLC purified compounds were administered to each mouse by i.v. tail vein injection, n=4 per group. At 1 h, 1 and 7 days post injection, the mice were terminated and the organs and tissues were harvested. Radioactivity was assayed in a gamma counter. The data was expressed as percentage of the total administered radioactivity (% ID) for the urine combined with the bladder, as well as for the blood pool; and percentage of the total administered radioactivity per gram (% ID/g) for all the other tested organs

[1] = Affinity for lactate ions (titration of 1 mM Gd(III) complex, ternary complex formation); format: physicochemical; details: for KA (association constant) with lactate ions: titration with lactate ions
Description: (§1) A test, to further evaluate the lack of formation of ternary complexes was performed. As a non-limiting example, we measured the affinity of the compound of example 1 for lactate and phosphate ions. The determination was performed directly by adding increasing amounts of each anion to a 1 mM solution of the Gd(III) complex.
Conversely analogous titrations of Gd-DO3A and Gd-DO3MA (both endowed with q=2) with lactate ions yielded KA values of 150 M^−1 and 110 M^−1, respectively.

[2] = Potentiometric measurements: protonation constants of the ligand; format: physicochemical; details: 0.1 mol dm^−3 NMe4NO3, 298.1 K
Description: (§2) All the pH metric measurements (pH=−log [H^+]) were carried out in degassed 0.1 mol dm^−3 NMe4NO3 solutions, at 298.1 K, by using a Metrohm 670 Titroprocessor equipped with a Metrohm 6.0203.100 combined pH electrode. Prior to each potentiometric titration, the combined Metrohm electrode was calibrated as a hydrogen concentration probe by titrating known amounts of HCl with CO2-free NMe4OH solutions and determining the equivalent point by the Gran's method which allows to determine the standard potential E^o, and the ionic product of water. In the complexation experiments the metal ion concentration was about 80% of the ligand concentration. At least three measurements (about 100 data points each one) were performed for each system in the pH range 2.5-10.5 and the relevant e.m.f. data were treated by means of the computer programs […] and […] which furnished the protonation and the complexation constants.

[3] = reference complex with two water molecules in the inner sphere; cited from earlier work
[4] = Relaxivity as a function of the pH; format: physicochemical; details: FIG. 3
Source text: The relaxivity of this complex was further tested as a function of the pH.

[5] = Affinity for phosphate ions (titration of 1 mM Gd(III) complex, ternary complex formation); format: physicochemical; details: increasing amounts of anion added to 1 mM complex, FIG. 4
Description: as §1

[6] = Potentiometric measurements: Gd complexation constant; format: physicochemical
Description: as §2

[7] = NMRD profile fitting (molecular reorientational time); format: physicochemical; details: calculated from fitting of the NMRD profile
[8] = Relaxivity of the Gd(III) complex; format: physicochemical; details: 25° C., pH 7 and 20 MHz
Description: The relaxivity determined at 25° C., pH 7 and 20 MHz for said complex is 7.1 mM^−1 s^−1.

[9] = Exchange time (tM) by transverse water 17O NMR relaxation time at variable temperature; format: physicochemical; details: 298 K
Source text: The exchange time (tM) value of the Gd(III) complex of the example 1 has been assessed by measuring the transverse water ^17O NMR relaxation time at variable temperature according to the procedure described by Aime et al., in the above cited literature.
Obtained value turned out to be 90 ns at 298 K. Albeit the optimal value (about 30 ns) has not been attained, this exchange rate can be considered quite fast, especially if compared with that of (Gd-DO3A), the Gd(III) complex of reference, with two water molecules in the inner sphere, whose tM value is 160 ns.

With `CC1(N(CC(=O)O)CC(=O)O)CN(CC(=O)O)[C@@H]2CCCC[C@H]2N(CC(=O)O)C1` [Compound 94] the “clearance of Lu-177 from the body (in words)” value (PC-3 tumors; PC-3 nude mouse) was “rapidly cleared from the body with little residual localization in any organs or tissue”, the “Blood 1 h % ID” value (PC-3 tumors; i.v., 1 h post injection, blood) was 0.39 ± 0.29 % ID and the “Blood 24 h % ID” value (PC-3 tumors; i.v., 24 h post injection, blood) was 0.01 ± 0.01 % ID. The “Blood 7 d % ID (*72 h timepoint)” value (PC-3 tumors; i.v., 72 h timepoint, blood) was 0.00 ± 0.00 % ID.
With `CC(C(=O)[O-])N1CCNCCN(C(C)C(=O)[O-])CCN(C(C)C(=O)[O-])CC1.[Gd+3]` (stereo not drawn) [Gd-DO3MA, reference compound] the “KA (association constant) with lactate ions” value (“KA (association constant)” for short) [1] was 110 M⁻¹.
For `CC1(N(CC(=O)O)CC(=O)O)CN(CC(=O)O)CCN(CC(=O)O)C1` [Example 1, 1,4-Bis(carboxymethyl)-6-[bis(carboxymethyl)amino]-6-methyl-perhydro-1,4-diazepine], the “Log KH” value ([2]; H2L + H = H3L) was 4.09 (3), the “Log KH” value ([2]; H3L + H = H4L) was 2.60 (3) and the “Log KH” value ([2]; H4L + H = H5L) was 1.44 (4). The “Log KH” value ([2]; H + L = HL) was 11.80 (2) and the “Log KH” value ([2]; HL + H = H2L) was 6.55 (2).
In the case of `O=C([O-])CN1CCNCCN(CC(=O)[O-])CCN(CC(=O)[O-])CC1.[Gd+3]` [Gd-DO3A, reference compound], the “tM value (reference complex)” value [3] is listed as 160 ns and the “KA (association constant)” value [1] is listed as 150 M⁻¹.
With “Gd(III) Complex of 1,4-Bis(carboxymethylmethyl)-6-[bis(hydroxycarbonyl-methyl)amino]-6-methylperhydro-1,4-diazepine [Gd(III) complex of Example 1]” the “relaxation rate over the investigated pH range” value [4] was “substantially constant”, the “interaction with phosphate ions” value [5] was “complete absence of interaction” and the LogKGd ([6]; M + L = ML, 0.1 mol dm^−3 NMe4NO3, 298.1 K) was 21.52 (1). The “LogKGd (conditional, pH 7.4)” value ([6]; conditional, pH 7.4) was “LogKGd (conditional, pH 7.4) = 17.06”, the “tR (molecular reorientational time)” value [7] was 80 ps and the relaxivity [8] was 7.1 mM⁻¹ s⁻¹. For the same compound, the “interaction with lactate ions” value ([1]; increasing amounts of anion added to 1 mM complex, FIG. 4) was “complete absence of interaction”, the “KA (association constant)” value [1] was “does not show any measurable association constant” and the “exchange time (tM)” value [9] was 90 ns.
